# Results reported in article PMC12483202, “Pharmacokinetic profile of oral firocoxib in the koala (Phascolarctos cinereus)” (PLOS One, 2025).
# Like-named read-outs stand apart in the source and are kept apart here.
# Columns and labels:
# [1] = Repeated oral dosing (5 mg/kg every 12 h, six doses) plasma trough concentrations in koalas; assay type: in vivo; settings: koala (Phascolarctos cinereus)
# Experimental: At least 2 months after the initial single oral dose administration study, firocoxib was administered twice daily at a dose of 5 mg/kg orally (as described in the single dose administration) for three consecutive days with the last dose administered 60 h after first administration, with a total of six doses administered. Blood (2 mL) was collected once daily into lithium heparin tubes at […] after first firocoxib dosage (prior to the morning dose). The cap, extension tube and catheter were flushed with saline before and after each collection. The first 0.5 mL of blood was discarded to avoid dilution of samples with saline.
# With the repeated oral dosing, the accumulation factor equation [18] was used to ascertain if there was any firocoxib accumulation between trough concentrations at 48 h versus 72 h:
# Accumulationfactor=(1−e^−nkT)/(1−e^−kT)
# Where n = the number of doses k = ke = elimination constant
# τ = number of hours between dosing
# [2] = Firocoxib binding to plasma proteins, ultrafiltration; assay type: in vitro ADME; settings: pooled plasma, pH 7.4, firocoxib 500 ng/mL, corrected for non-specific binding, thawed frozen plasma, read-out: corrected percentage bound to plasma proteins (converted)
# Experimental: The percentage of firocoxib bound to koala plasma proteins was determined using the ultrafiltration method using a modified protocol. As firocoxib plasma protein binding (PPB) has been reported in horses, archived horse plasma (obtained under The University of Sydney approved animal ethics protocol: 2015/736) was tested simultaneously alongside koala plasma to compare the percentage of firocoxib bound to equine plasma proteins. The total plasma protein concentration in the koala samples was determined using Vetscan® VS2 chemistry analyser (Comprehensive Diagnostic Profile), (Zoetis Australia Pty Ltd., Rhodes, NSW). Firocoxib dissolved in dimethyl sulfoxide (to reduce non-specific binding) at a concentration of 500 ng/mL, was added to 1 mL of thawed pooled blank koala or horse plasma, the pH was adjusted to 7.4, and then incubated in a water bath at 37 °C for 30 min. […] Both fractions were analysed by HPLC as described above. All samples were analysed as duplicates. The percentage of substrate binding to plasma proteins was calculated using the equation: […]
# (§1) The same concentrations of firocoxib were added to phosphate buffered saline and underwent ultrafiltration to determine non-specific binding to the filtration membrane. Thereafter the corrected percentage of substrate binding to plasma proteins was calculated as: […]
# [3] = Non-specific binding to the filtration membrane (phosphate buffered saline); assay type: in vitro ADME; settings: at a concentration of 250 ng/mL
# Experimental: as §1
# [4] = cited from earlier work
# [5] = cited from earlier work; remark: listed apart in the source
# [6] = parameters: method as in ref [4] of S9 Table; settings: Rabbits (6); PO 3.74 -4.20 mg/kg; ref [4] of S9 Table; cited from earlier work
# [7] = parameters: method as in ref [9] of S9 Table; settings: Rhinoceros (5); PO 0.1 mg/kg; ref [9] of S9 Table; cited from earlier work
# [8] = cited from earlier work; remark: listed apart in the source
# COX-1:COX-2 = settings: cited from earlier work
# COX-2 = settings: cited from earlier work
# cats = tested on: cats; parameters: method as in PMID 16111170; settings: cited from earlier work
# cyclooxygenase-2 = settings: based on in vitro studies in other species; cited from earlier work
# [9] = female, in vivo, Plasma firocoxib concentration (trough)
# [10] = male, in vivo, Plasma firocoxib concentration (trough)
# [11] = Dogs (40), PO 5 mg/kg, ref [1] of S9 Table
# [12] = Horses (6), PO 0.1 mg/kg, ref [1] of S9 Table
# [13] = Horses (12), IV 0.1 mg/kg, ref [3] of S9 Table
# [14] = Horses (12), PO 0.1 mg/kg, ref [3] of S9 Table
structure (smiles),measurement,setting,value
CC1(C)OC(=O)C(OCC2CC2)=C1c1ccc(S(C)(=O)=O)cc1 [firocoxib],concentration at 24 h,"[1]; both sexes, plasma, arithmetic mean, six koalas, 24 h, 5 mg/kg oral every 12 h, read-out: Firocoxib plasma trough concentration",54.7 ng/mL
same,concentration at 48 h,"[1]; both sexes, plasma, arithmetic mean, six koalas, 48 h, 5 mg/kg oral every 12 h, read-out: Firocoxib plasma trough concentration",47.4 ng/mL
same,concentration at 72 h,"[1]; both sexes, plasma, arithmetic mean, six koalas, 72 h (12 h after the last dose), 5 mg/kg oral every 12 h, read-out: Firocoxib plasma trough concentration",85.5 ng/mL
same,concentration at 24 h,"[1]; both sexes, plasma, harmonic mean, six koalas, 24 h, 5 mg/kg oral every 12 h, read-out: Firocoxib plasma trough concentration",43.3 ng/mL
same,concentration at 48 h,"[1]; both sexes, plasma, harmonic mean, six koalas, 48 h, 5 mg/kg oral every 12 h, read-out: Firocoxib plasma trough concentration",33.2 ng/mL
same,concentration at 72 h,"[1]; both sexes, plasma, harmonic mean, six koalas, 72 h (12 h after the last dose), 5 mg/kg oral every 12 h, read-out: Firocoxib plasma trough concentration",68.8 ng/mL
same,concentration at 24 h,"[1]; both sexes, plasma, median, six koalas, 24 h, 5 mg/kg oral every 12 h, read-out: Firocoxib plasma trough concentration",58.3 ng/mL
same,concentration at 48 h,"[1]; both sexes, plasma, median, six koalas, 48 h, 5 mg/kg oral every 12 h, read-out: Firocoxib plasma trough concentration",52.9 ng/mL
same,concentration at 72 h,"[1]; both sexes, plasma, median, six koalas, 72 h (12 h after the last dose), 5 mg/kg oral every 12 h, read-out: Firocoxib plasma trough concentration",82.1 ng/mL
same,concentration at 24 h,[1]; [9],69.1 ng/mL
same,concentration at 48 h,[1]; [9],36.8 ng/mL
same,concentration at 72 h,[1]; [9],137 ng/mL
same,concentration at 24 h,"[1]; female, plasma, harmonic mean, females, 24 h, 5 mg/kg oral every 12 h, read-out: Firocoxib trough plasma concentration",75.5 ng/mL
same,concentration at 48 h,"[1]; female, plasma, harmonic mean, females, 48 h, 5 mg/kg oral every 12 h, read-out: Firocoxib trough plasma concentration",51.6 ng/mL
same,concentration at 72 h,"[1]; female, plasma, harmonic mean, females, 72 h, 5 mg/kg oral every 12 h, read-out: Firocoxib trough plasma concentration",118 ng/mL
same,concentration at 24 h,"[1]; female, plasma, mean, females, 24 h, 5 mg/kg oral every 12 h, read-out: Firocoxib trough plasma concentration",76.5 ng/mL
same,concentration at 48 h,"[1]; female, plasma, mean, females, 48 h, 5 mg/kg oral every 12 h, read-out: Firocoxib trough plasma concentration",55.5 ng/mL
same,concentration at 72 h,"[1]; female, plasma, mean, females, 72 h, 5 mg/kg oral every 12 h, read-out: Firocoxib trough plasma concentration",120 ng/mL
same,concentration at 24 h,"[1]; female, plasma, median (range), females, 24 h, 5 mg/kg oral every 12 h, read-out: Firocoxib trough plasma concentration",71.3 ng/mL
same,concentration at 48 h,"[1]; female, plasma, median (range), females, 48 h, 5 mg/kg oral every 12 h, read-out: Firocoxib trough plasma concentration",60.2 ng/mL
same,concentration at 72 h,"[1]; female, plasma, median (range), females, 72 h, 5 mg/kg oral every 12 h, read-out: Firocoxib trough plasma concentration",120 ng/mL
same,concentration at 24 h,[1]; [10],25.3 ng/mL
same,concentration at 72 h,[1]; [10],61.8 ng/mL
same,concentration at 24 h,"[1]; male, plasma, arithmetic mean, males, 24 h, 5 mg/kg oral every 12 h, read-out: Firocoxib trough plasma concentration",33 ng/mL
same,concentration at 48 h,"[1]; male, plasma, arithmetic mean, males, 48 h, 5 mg/kg oral every 12 h, read-out: Firocoxib trough plasma concentration",39.2 ng/mL
same,concentration at 72 h,"[1]; male, plasma, arithmetic mean, males, 72 h, 5 mg/kg oral every 12 h, read-out: Firocoxib trough plasma concentration",51.3 ng/mL
same,concentration at 24 h,"[1]; male, plasma, harmonic mean, males, 24 h, 5 mg/kg oral every 12 h, read-out: Firocoxib trough plasma concentration",30.3 ng/mL
same,concentration at 48 h,"[1]; male, plasma, harmonic mean, males, 48 h, 5 mg/kg oral every 12 h, read-out: Firocoxib trough plasma concentration",24.6 ng/mL
same,concentration at 72 h,"[1]; male, plasma, harmonic mean, males, 72 h, 5 mg/kg oral every 12 h, read-out: Firocoxib trough plasma concentration",48.5 ng/mL
same,concentration at 24 h,"[1]; male, plasma, median (range), males, 24 h, 5 mg/kg oral every 12 h, read-out: Firocoxib trough plasma concentration",26.1 ng/mL
same,concentration at 48 h,"[1]; male, plasma, median (range), males, 48 h, 5 mg/kg oral every 12 h, read-out: Firocoxib trough plasma concentration",48.2 ng/mL
same,concentration at 72 h,"[1]; male, plasma, median (range), males, 72 h, 5 mg/kg oral every 12 h, read-out: Firocoxib trough plasma concentration",56.2 ng/mL
same,"fraction unbound at 30 min, 500 ng/mL",[2]; horse plasma,0.147
same,"fraction unbound at 30 min, 500 ng/mL",[2]; koala plasma,0.153
same,non-specific binding of firocoxib,[3],4.06%
same,t1/2,"[4]; Dogs (6), PO 5 mg/kg, ref [2] of S9 Table",6.5 h
same,Cmax,[4]; [11],520 ng/mL
same,Tmax,[4]; [11],1.25 h
same,t1/2,[4]; [11],5.9 h
same,Tmax,[4]; dogs,1.25 h
same,plasma elimination half-life (mean),[4]; dogs,5.90 h
same,mean Cmax,"[4]; dogs, oral 5 mg/kg",520 ng/mL
same,Cmax,[5]; [12],58.0 ng/mL
same,Tmax,[5]; [12],3.2 h
same,t1/2,[5]; [12],32.77 h
same,Cmax,[5]; [13],210 ng/mL
same,t1/2,[5]; [13],34 h
same,Cmax,[5]; [14],75 ng/mL
same,Tmax,[5]; [14],3.9 h
same,t1/2,[5]; [14],30 h
same,Absolute oral bioavailability,[5]; horses dosed at 0.1 mg/kg,79%
same,Cl,[5]; horses,0.617 mL/min/kg
same,Tmax (mean),[5]; horses,3.2 h
same,Vd,[5]; horses,1.7 L/kg
same,plasma elimination half-life,[5]; horses,32.8 h
same,Cmax,"[5]; horses, oral 0.1 mg/kg",58 ng/mL
same,Cmax,[6],160 ng/mL
same,Tmax,[6],3.81 h
same,t1/2,[6],9.12 h
same,Cmax,[7],15.7 ng/mL
same,t1/2,[7],4.96 h
same,ionizability,[8]; at physiological pH,low ionizability
same,-log10 dissociation constant (pka),[8],19.69
same,solubility in dimethyl sulfoxide,[8],highly soluble
same,solubility in water,[8],insoluble
same,COX-1:COX-2 inhibition ratio,"COX-1:COX-2; dogs, whole blood",384–427
same,COX-2 selectivity relative to carprofen,COX-1:COX-2; more potent than carprofen in COX-2 selectivity,30 fold
same,IC80 (COX-2),"COX-2; horse whole blood, in vitro",0.067 µg/mL
same,plasma concentration required to inhibit 80% of in vitro COX-2 reactions,"COX-2; horse, corrected from whole blood IC80",exceeding 103 ng/mL
same,COX-1:COX-2 inhibition ratio,"COX-2; horses, whole blood",643
same,antipyretic activity,cats,antipyretic activity
same,target plasma concentration to inhibit 80% of cyclooxygenase-2 activity (IC80),cyclooxygenase-2,approximately 100 ng/mL
